Tests used:
[1] = test system: murine hematopoietic system; experiment: exogenous spleen colony (CFU-S) assay, toxicity to the murine hematopoietic system; format: in vivo; settings: CFU-S assay 20 hrs after drug administration, mice
Protocol: To evaluate toxicity to the murine hematopoietic system, an exogenous spleen colony (CFU-S) assay was used. A suitable number of murine […] are injected (intravenously) into lethally irradiated syngeneic mice (Ref. Hodgson, G. S., and Bradley, T. R., Properties of Haematopoietic Stem Cells Surviving 5-FU Treatment: Evidence for a pre-CFU-S Cell48, Nature 281:381, 1979).
Colonies are found in the spleen of the recipients on Day 9 or 10; there is a linear relationship between the number of cells injected and the number of spleen colonies. The spleen colonies originate from a single cell, and contain cells of the erythroid, granulocytic and megakaryocytic series.
At 20 hours after drug administration, each mouse was sacrificed and bone marrow was extracted from the femurs into McCoy's 5A medium (GIBCOm Grand Island, N.Y.) on ice. Nucleated marrow cells were quantitated, and 5×10^4 cells were injected intravenously into syngeneic recipient mice one hour after they received 800 rads whole body radiation. Nine days later, the recipient animals were sacrificed, and the spleens were removed and fixed in Boulin's solution. Surface colonies were then counted.

[2] = test system: human immunodeficiency virus (HIV); settings: cited from earlier work
[3] = AZT recipients, cited from earlier work
[4] = placebo 4 percent (P less than 0.001)

SMILES	CFU-S Survival (% of Control) ([1]; phosphorothioate 900 mg/kg po, followed in 30 minutes with AZT 400 mg/kg ip)	clinical benefits with AIDS ([2]; AIDS patients)	serious adverse reactions ([2]; human, in vivo)	CFU-S Survival (% of Control) ([1]; AZT alone, 400 mg/kg ip)	neutropenia (less than 500 cells per cubic millimeter), share of recipients ([3]; placebo 2 percent (P less than 0.001))	anemia with hemoglobin levels below 7.5 per deciliter, share of recipients [3, 4]	required multiple red-cell transfusions, share of recipients [3, 4]
CNCCCNCCCSP(=O)(O)O [S-3-(3-methylaminopropylamino)propyl dihydrogen phosphorothioate]	68%						
Cc1cn([C@H]2C[C@H](N=[N+]=[N-])[C@@H](CO)O2)c(=O)[nH]c1=O [AZT, 3'-azido-3'-deoxythymidinc]		clinical benefits with AIDS have been reported	serious adverse reactions, particularly bone marrow suppression were observed	18%	16%	24%	21%
